# Experimental data published in paper PMC12915131, “Balanced Expression of the Diiron Oxygenase BioE Is Essential for Biotin Homeostasis in Elizabethkingia meningoseptica” (Advanced Science, 2025).
# Legend:
# EmBioE (BioE) = biological target: T1, EmBioE (BioE); assay: SPR (Biacore, CM5 chip); supported by urea-PAGE inhibition of C18-ACP cleavage (Ki […]); type: binding, Elizabethkingia meningoseptica
# T1 construct: 6x His-tagged EmBioE
# EmBioE = biological target: T2, EmBioE; assay: SPR, confirmed by MST; HPLC shows conversion to pimeloyl-CoA; type: binding, Elizabethkingia meningoseptica
# T2 construct: gene bioE; 6x His-tagged EmBioE
SMILES,Kd (EmBioE (BioE)) [µM],Kd (EmBioE) [µM]
"C=CCn1c(SCC(=O)Nc2scc(-c3ccc(C)cc3)c2C(=O)OC)nnc1-c1ccc(N(C)C)cc1 [compound 466982, 466982]",~14.6,–
"CCCCCCCCCCCCCCCCCC(=O)SCCNC(=O)CCNC(=O)[C@H](O)C(C)(C)COP(=O)(O)OP(=O)(O)OC[C@H]1O[C@@H](n2cnc3c(N)ncnc32)[C@H](O)[C@@H]1OP(=O)(O)O [C18-CoA, stearoyl-CoA]",–,~20.1
